target: T1, Autophosphorylated AurA kinase (Homo sapiens, UniProt O14965); assay: AurA Luminescence-Based ATP Depletion Enzyme Assay; type: biochemical; conditions: 10 μM ATP
T1 construct: made in house; host or cells: Sf9 insect cells
T1 sequence (O14965 1-403): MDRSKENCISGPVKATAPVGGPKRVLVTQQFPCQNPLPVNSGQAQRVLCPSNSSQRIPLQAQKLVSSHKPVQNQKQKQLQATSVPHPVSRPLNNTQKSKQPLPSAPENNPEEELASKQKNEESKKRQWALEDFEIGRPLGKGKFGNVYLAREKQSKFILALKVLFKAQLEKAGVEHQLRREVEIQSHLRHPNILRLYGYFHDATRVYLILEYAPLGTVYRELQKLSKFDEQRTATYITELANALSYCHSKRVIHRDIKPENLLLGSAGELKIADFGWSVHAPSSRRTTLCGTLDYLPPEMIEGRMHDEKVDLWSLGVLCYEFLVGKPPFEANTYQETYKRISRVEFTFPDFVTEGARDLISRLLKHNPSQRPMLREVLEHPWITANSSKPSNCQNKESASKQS
Description: AurA Luminescence-Based ATP Depletion Enzyme Assay
Materials: Kemptide peptide substrate=LRRASLG (Biopeptide, San Diego, Calif.), ATP (Sigma Cat#A-3377, FW=551), HEPES buffer, pH 7.5, 10% Brij 35 (Calbiochem Cat#203728), MgCl2, Staurosporine (Streptomyces sp. Sigma Cat#85660-1MG), white Costar 384-well flat-bottom plate (VWR Cat#29444-088), Autophosphorylated AurA kinase (see below), Kinase-Glo™ (Promega Cat#V6712).
Stock Solutions: 10 mM Kemptide peptide (7.72 mg/ml in water), stored at −20° C.; 100 mM HEPES buffer+0.015% Brij 35, pH 7.5 (5 ml 1M HEPES stock+75 μL 10% Brij 35+45 ml miliQH2O); 10 mM ATP (5.51 mg/ml in dH2O) stored at −20° C. (diluted 50 μl into total of 10 ml miliQH2O daily=50 μM ATP working stock); 100 mM MgCl2; 200 μM Staurosporine, 2× Kinase-Glo™ reagent (made fresh or stored at −20° C.).
AurA Autophosphorylation Reaction: ATP and MgCl2 were added to 1-5 mg/ml AurA at final concentrations of 10 mM and 100 mM, respectively. The autophosphorylation reaction was incubated at 21° C. for 2-3 h. The reaction was stopped by the addition of EDTA to a final concentration of 50 mM, and samples were flash frozen with liquid N2 and stored at −80° C.
Standard Assay Setup for 384-well format (20 μl kinase reaction, 40 μl detection reaction): 10 mM MgCl2; 0.2 mM Kemptide peptide; 1 μl test compound (in DMSO); 0.3 μg/ml Autophosphorylated AurA kinase; 10 μM ATP; 100 mM HEPES+0.015% Brij buffer. Positive controls contained DMSO with no test compound. Negative controls contained 5 μM staurosporine. The kinase reactions were initiated at time t=0 by the addition of ATP. Kinase reactions were incubated at 21° C. for 45 min, then 20 μl of Kinase-Glo™ reagent were added to each well to quench the kinase reaction and initiate the luminescence reaction. After a 20 min incubation at 21° C., the luminescence was detected in a plate-reading luminometer.
The Sf9 insect cell pellets (˜18 g) produced from 6 L of cultured cells expressing human Aurora-2 were resuspended in 50 mM Na Phosphate pH 8.0, 500 mM NaCl, 10% glycerol, 0.2% n-octyl-β-D-glucopyranoside (BOG) and 3 mM β-Mercaptoethanol (BME). One tablet of Roche Complete, EDTA-free protease inhibitor cocktail (Cat#1873580) and 85 units Benzonase (Novagen Cat#70746-3)) were added per 1 L of original culture. Pellets were resuspended in approximately 50 ml per 1 L of original culture and were then sonicated on ice with two 30-45 sec bursts (100% duty cycle). Debris was removed by centrifugation and the supernatant was passed through a 0.8 μm syringe filter before being loaded onto a 5 ml Ni^2+ HiTrap column (Pharmacia). The column was washed with 6 column volumes of 50 mM Na Phosphate pH 8.0, 500 mM NaCl, 10% glycerol, 3 mM BME. The protein was eluted using a linear gradient of the same buffer containing 500 mM Imidazole. The eluant (24 ml) was cleaved overnight at 4° C. in a buffer containing 50 mM Na Phosphate pH 8.0, 500 mM NaCl, 10% glycerol, 3 mM BME and 10,000 units of TEV (Invitrogen Cat#10127-017). The protein was passed over a second nickel affinity column as described above; the flow-through was collected. The cleaved protein fractions were combined and concentrated using spin concentrators. Further purification was done by gel filtration chromatography on a S75 sizing column in 50 mM Na Phosphate (pH 8.0), 250 mM NaCl, 1 mM EDTA, 0.1 mM AMP-PNP or ATP buffer, and 5 mM DTT. The cleanest fractions were combined and concentrated to approximately 8-11 mg/ml, and were either flash frozen in liquid nitrogen in 120 μl aliquots and stored at −80° C., or stored at 4° C.

First: CC(O)c1cccc(Nc2nccc(-c3cc(C(=O)NCc4ccccc4)cs3)n2)c1 (stereo not shown)
Second: CC(O)c1cccc(Nc2nccc(-c3ccc(CNC(=O)c4ccccc4)s3)n2)c1 (stereo not shown)
The IC50 of the first is lower: < 100 nM for the first, 100 to 500 nM for the second. The first is the more potent here.

First: O=S(=O)(Nc1ncc[nH]1)c1ccc(Nc2nccc(-c3ccc(S(=O)(=O)N4CCCCC4)s3)n2)cc1
Second: NC(=O)c1cccc(Nc2nccc(-c3ccc(Br)s3)n2)c1
The IC50 of the first is lower: < 100 nM for the first, 100 to 500 nM for the second. The first is the more potent here.

First: Cc1noc(C)c1-c1ccc(-c2ccnc(Nc3cccc(C(C)O)c3)n2)s1 (stereo not shown)
Second: CCN(CCC#N)C(=O)c1ccc(-c2ccnc(Nc3ccncc3)n2)s1
The IC50 of the first is lower: 100 to 500 nM for the first, > 500 nM for the second. The first is the more potent here.

test system: HCT116 cells; assay: 96-well XTT cell survival assay (AurA XTT); type: cell-based; conditions: Homo sapiens, HCT-116, 72 hours
Description: HCT116 cells were maintained in McCoy's 5a Medium supplemented with 10% fetal bovine serum (FBS) 2 mM L-Glutamine and 100 units penicillin/100 μg streptomycin, at 37° C. in 5% CO2
Compounds were tested in the following assays in duplicate.
96-well XTT assay: Cells were grown in growth media containing various concentrations of compounds (duplicates) on a 96-well flat bottom plate for 72 hours at 37° C. in 5% CO2. The starting cell number was 5000 cells per well and volume was 120 μl. At the end of the 72-hour incubation, 40 μl of XTT labeling mixture (50:1 solution of sodium 3′-[1-(phenylaminocarbonyl)-3,4-tetrazolium]-bis(4-methoxy-6-nitro) benzene sulfonic acid hydrate and Electron-coupling reagent: PMS (N-methyl dibenzopyrazine methyl sulfate) were added to each well of the plate. After an additional 2-6 hours […] with a spectrophotometer.

In the case of CCN(CCC#N)C(=O)c1ccc(-c2ccnc(Nc3ccncc3)n2)s1, the IC50 is reported as 1000 to 5000 nM.
